According to patent US4407812A, “Etheral imidazoles and use in treatment of thromboses” (Laboratoires Chauvin-Blache, priority 1980, dated 1983):
Structures can show the parent of a compound that is named as a salt.

Key:
[1] = system: arachidonic acid-induced platelet aggregation; assay: Ex vivo platelet aggregation in rabbits (arachidonic acid-induced); parameters: species or system rabbit; settings: 5 mg/kg subcutaneous, two consecutive days, 2 hrs after second administration, arachidonic acid 2 mM
Procedure: 2.1 Ex vivo platelet aggregation in rabbits
Groups of 3 male rabbits are treated subcutaneously for two consecutive days and their plasma is taken two hrs after the second administration. Arachidonic acid-induced (2 mM) platelet aggregation is measured by the turbidimetric method according to Born.

[2] = Acute toxicity, LD50 on intraperitoneal administration to Swiss mice; settings: mouse, in vivo, ip, mean ± 5% confidence interval
From the text: (§1) In Table VI are set forth results of the determination of the LD50 of Compound A on intraperitoneal administration to Wistar rats and Swiss mice.

[3] = Acute toxicity, LD50 on intraperitoneal administration to Wistar rats; settings: rat, in vivo, ip, mean ± 5% confidence interval
From the text: as §1

[4] = molecular target: T1, platelet thromboxane synthetase (Homo sapiens, UniProt P24557); assay: Inhibition of platelet thromboxane synthetase (14C-arachidonic acid incubated with washed platelet suspension, TLC); assay type: cell-based; settings: for IC50: 14C-arachidonic acid, 10 min, 37° C., pH 7.5, read-out: 50% inhibitory concentration (IC50)
T1 construct: endogenous in cells; host or cells: washed platelets from platelet-rich plasma of venous blood
T1 sequence (P24557 1-533): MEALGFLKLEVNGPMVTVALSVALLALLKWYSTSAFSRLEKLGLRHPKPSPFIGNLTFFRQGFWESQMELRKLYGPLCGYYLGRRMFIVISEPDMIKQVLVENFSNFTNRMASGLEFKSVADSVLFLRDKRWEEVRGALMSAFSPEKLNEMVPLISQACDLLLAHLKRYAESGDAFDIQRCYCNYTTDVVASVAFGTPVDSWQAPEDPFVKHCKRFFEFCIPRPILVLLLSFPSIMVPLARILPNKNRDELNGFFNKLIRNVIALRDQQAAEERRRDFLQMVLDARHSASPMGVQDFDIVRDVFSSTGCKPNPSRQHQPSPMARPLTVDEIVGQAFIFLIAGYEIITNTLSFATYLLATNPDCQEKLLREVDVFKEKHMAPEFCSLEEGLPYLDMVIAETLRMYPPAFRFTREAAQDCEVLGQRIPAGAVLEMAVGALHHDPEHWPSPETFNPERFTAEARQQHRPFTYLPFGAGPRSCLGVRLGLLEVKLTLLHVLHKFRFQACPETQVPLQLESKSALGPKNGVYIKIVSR
Procedure: 1.1 Inhibition of platelet thromboxane synthetase
Platelet rich plasma (PRP) is prepared by centrifugation of venous blood at 150 g×10 min. The platelets are sedimented at 2000 g×20 min. and washed in a tris-HCl buffer at pH 7.5 (15 mM) containing EDTA (1.5 mM), NaCl, (150 mM) and KCl (5 mM). The platelet pellet is then suspended in a volume of tris-HCl (50 mM) at pH 7.5 corresponding to one-half the original PRP volume. Aliquots of platelet suspension (0.5 ml) are incubated with 1 μg ^14 C-arachidonic acid (specific activity=50 mCi/mmole) as the Na salt for 10 min. at 37° C. in the presence or the absence of test material. On completion of the reaction, the incubate is cooled to 0°-4° C., made acidic and salted by addition of citric acid and NaCl and then extracted with 2×2 ml ethyl acetate. A PGE2 standard is added to the extract which, after evaporation to dryness, is submitted to a bidimensional chromatography over a thin layer of silica (Merck F 254) in the systems: (1) benzene/dioxan/acetic acid (60:30:3); (2) chloroform/methanol/acetic acid/water (90:8:1:0.8).
The PGE2 standard is visualized with phosphomolybdic acid in the hot. The radioactivity corresponding to the metabolites of arachidonic acid is measured with a Berthold scanner. […]

[5] = Bleeding time (ear) in rabbits; assay type: in vivo, rabbit; settings: 5 mg/kg subcutaneous, mean ± standard deviation
Procedure: 2.2 Bleeding time (ear) in rabbits
Groups of 3 male rabbits are treated subcutaneously with the test materials. Bleeding time (BT) is determined just before, and then 2 hours and 4 hours after their administration according to a standard procedure, by a "blind" acting experimenter.

[6] = system: collagen-induced platelet aggregation; assay: Inhibition of collagen-induced platelet aggregation; assay type: cell-based; settings: Homo sapiens, collagen 20 μg, control 100
Procedure: (§2) 3--Inhibition of collagen-induced platelet aggregation and determination of the inhibition of thromboxane synthesis.
(§3) Venous blood sampled from volunteers is collected on sodium citrate. The platelet rich plasma (PRP) is prepared by centrifugation at 150 g×10 min.
(§4) 300 μl PRP are incubated in siliconized tubes in an aggregometer in the presence or the absence of test material dissolved in 100 μl buffer, and 20 μg collagen (Stago) are then added. Platelet aggregation is recorded by the decrease of the optical density. After 4 minutes, an acetylsalicylic acid solution (2×10^-4 M final) is added to block the synthesis of prostanoids, and thromboxane B2 is titrated in the liquid phase of the incubate by radioimmunoassay.

[7] = system: thromboxane synthesis; assay: Inhibition of thromboxane synthesis in collagen-stimulated PRP (thromboxane B2 radioimmunoassay); assay type: cell-based, human; settings: collagen 20 μg, control 900
Procedure: as §2, §3, §4

With `CCCCCC(O)/C=C/n1ccnc1` (racemic) [Compound A, (E)-1-(3-hydroxy-octen-1-yl)imidazole (racemic)] the Deaggregation rate ([1]; controls 5) was 3 arbitrary units, the Maximum aggregation ([1]; controls 40) was 28 % of maximum aggregation and the Aggregation rate ([1]; controls 56) was 32 arbitrary units. It also gave an LD50 ([2]; F) of 164 ± 6 mg/kg, an LD50 ([2]; M) of 166 ± 7 mg/kg and an LD50 ([3]; F) of 250 ± 16 mg/kg. The LD50 ([3]; M) was 270 ± 12 mg/kg, the IC50 ([4]; platelet suspension) was 2500 nM and the “Bleeding time, Time 2 hours” value ([5]; 2 hours after administration, controls 85 ± 31) was 165 ± 38 s. For the same molecule, the “Bleeding time, Time 4 hours” value ([5]; 4 hours after administration, controls 87 ± 29) was 102 ± 19 s and the “Bleeding time, Time 0” value ([5]; just before administration, controls 70 ± 23) was 80 ± 27 s.
Work on `CCCCCC(/C=C/n1ccnc1)OC(=O)c1ccccc1` (stereo not drawn) [C] yielded an IC50 ([4]; platelet suspension) of 1500 nM.
For `CCCCCC(/C=C/n1ccnc1)OC(=O)c1cccnc1` (stereo not drawn) [Compound B, (E)-1-(3-hydroxy-octen-1-yl)imidazole nicotinic ester dihydrochloride], the activity at 10 µM ([6]; 10^-5 M) was 7%, the activity at 1 µM ([6]; 10^-6 M) was 50% and the “T × B2 formed” value ([7]; 10^-5 M) was 100 pmole/ml PRP. For the same molecule, the “T × B2 formed” value ([7]; 10^-6 M) was 400 pmole/ml PRP and the IC50 ([4]; platelet suspension) was 1000 nM.
Work on `CCCCCC(/C=C/n1ccnc1)OC(C)=O` (stereo not drawn) [D] yielded an IC50 ([4]; platelet suspension) of 1500 nM.
With `CCCCCC(=O)OC(/C=C/n1ccnc1)CCCCC` (stereo not drawn) [E] the IC50 ([4]; platelet suspension) was 1500 nM.
Work on `CCCCCC(/C=C/n1ccnc1)OCc1ccccc1` (stereo not drawn) [F] yielded an IC50 ([4]; platelet suspension) of 1000 nM.
`CCCCCC(/C=C/n1ccnc1)OCc1ccccn1` (stereo not drawn) [G, (E)-1-(3-hydroxy-octen-1-yl)imidazole 2-pyridyl methyl ether fumarate] gave an IC50 ([4]; platelet suspension) of 1500 nM.
In the case of `c1c[nH]cn1` [Imidazole, imidazole], the “inhibition of the formation of thromboxane A2 (FIG. 2)” value ([4]; measured by its stable degradation product) is reported as “inhibits the formation of thromboxane A2”, the “PGE2 formed concomitantly to thromboxane inhibition (FIG. 2)” value ([4]; platelet suspension) is reported as “increasing amounts of PGE2 are formed” and the IC50 ([4]; platelet suspension) is reported as 50000 nM.
